Data from ChEMBL document CHEMBL1201862, “PubChem BioAssay data set” (2004).
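Compound exposure: 48 hours, 5 concentrations, 96-well plates. GI50 is the concentration that inhibits growth by half.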 Active and inactive are the calls of the source. No stated cut-off is given here; in the data, active = GI50 up to about 1.1 µM and inactive = higher.

Legend:
Assay in all cases: DTP human tumour cell line panel, 48 h
[1] = system: COLO 205
[2] = system: DLD-1
[3] = system: EKVX
[4] = system: HL-60
[5] = system: HOP-18
[6] = system: KM-20L2
[7] = system: M14
[8] = system: Malme-3M
[9] = system: NCI-H226
[10] = system: NCI-H23
[11] = system: OVCAR-5
[12] = system: RXF 393
[13] = system: SF-539
[14] = system: SNB-75
[15] = system: SNB-78
[16] = system: U-251

Measured: GI50

CN(C)CCNC(=O)c1cccc2ncc(-c3ccccc3)nc12
inactive: [1] 4.11 µM | [2] 5.45 µM | [3] 13.3 µM | [4] 14.4 µM | [5] 5.85 µM | [6] 3.81 µM | [7] 13.9 µM | [8] 13 µM | [9] 7.91 µM | [10] 14.6 µM | [11] 9.04 µM | [12] 5.86 µM | [13] 4.51 µM | [14] 17.5 µM | [15] 8.89 µM | [16] 8.26 µM

CCC(=O)N1C(=S)SC[C@H]1C(=O)OC
inactive: [1] > 100 µM | [2] > 100 µM | [3] > 100 µM | [4] > 100 µM | [5] > 100 µM | [6] > 100 µM | [7] > 100 µM | [8] > 100 µM | [9] > 100 µM | [10] > 100 µM | [11] > 100 µM | [12] > 100 µM | [13] > 100 µM | [14] > 100 µM | [15] > 100 µM | [16] > 100 µM

CN(/N=C/c1cccc2cccnc12)c1c([N+](=O)[O-])cc([N+](=O)[O-])cc1[N+](=O)[O-]
inactive: [1] > 100 µM | [2] > 100 µM | [3] > 100 µM | [4] 5.82 µM | [5] > 100 µM | [6] > 100 µM | [7] > 100 µM | [8] > 100 µM | [9] > 100 µM | [10] > 100 µM | [11] > 100 µM | [12] > 100 µM | [13] > 100 µM | [14] > 100 µM | [15] > 100 µM | [16] > 100 µM

Cc1ccccc1NC(=O)C1C(=O)N(c2ccccc2C)C(=O)/C1=N\N (configuration not stated)
inactive: [1] > 100 µM | [2] > 100 µM | [3] > 100 µM | [4] > 100 µM | [5] > 100 µM | [6] > 100 µM | [7] > 100 µM | [8] > 100 µM | [9] > 100 µM | [10] > 100 µM | [11] > 100 µM | [12] > 100 µM | [13] > 100 µM | [14] > 100 µM | [15] > 100 µM | [16] > 100 µM

O=C(O)c1ccc(C2COc3ccc(Cl)cc3C2)cc1 (configuration not stated)
inactive: [1] > 100 µM | [2] > 100 µM | [3] > 100 µM | [4] > 100 µM | [5] > 100 µM | [6] > 100 µM | [7] > 100 µM | [8] > 100 µM | [9] > 100 µM | [10] > 100 µM | [11] > 100 µM | [12] > 100 µM | [13] > 100 µM | [14] 31.6 µM | [15] > 100 µM | [16] > 100 µM

Cc1cccc(C(C)(C)C)c1NC(=O)C(=O)C(c1cnc2ccccc2n1)[N+](=O)[O-] (configuration not stated)
inactive: [1] > 100 µM | [2] > 100 µM | [3] > 100 µM | [4] 65.3 µM | [5] > 100 µM | [6] > 100 µM | [7] > 100 µM | [8] > 100 µM | [9] > 100 µM | [10] > 100 µM | [11] > 100 µM | [12] > 100 µM | [13] > 100 µM | [14] > 100 µM | [15] > 100 µM | [16] > 100 µM

NCCCCCCNCc1cccc2ccccc12
inactive: [1] 29.9 µM | [2] > 100 µM | [3] > 100 µM | [4] 54.2 µM | [5] 24.2 µM | [6] 58.3 µM | [7] 18.4 µM | [8] 19.1 µM | [9] > 100 µM | [10] > 100 µM | [11] > 100 µM | [12] 57 µM | [13] 40.6 µM | [14] > 100 µM | [15] > 100 µM | [16] > 100 µM

O=C(/C=C/c1ccccc1O)c1cccc2ccccc12
inactive: [1] > 44.8 µM | [2] 37.3 µM | [3] > 87.9 µM | [4] 27.9 µM | [5] 28.1 µM | [6] > 100 µM | [7] > 100 µM | [8] > 100 µM | [9] > 46.3 µM | [10] 60.7 µM | [11] > 100 µM | [12] 43.2 µM | [13] 76.4 µM | [14] 48.8 µM | [15] > 100 µM | [16] 42.3 µM

O=C1c2cccc(O)c2C(=O)c2c(O)cc(CO)cc21 [ALOE-EMODIN]
inactive: [1] 31.7 µM | [2] 32.5 µM | [4] 24.8 µM | [5] > 100 µM | [6] 39.4 µM | [7] 38.4 µM | [8] 20.8 µM | [9] > 100 µM | [10] > 100 µM | [11] > 100 µM | [12] > 100 µM | [14] 72.8 µM | [15] > 100 µM | [16] > 100 µM
